One data set addresses T1, OATP1B1 (Homo sapiens, UniProt Q9Y6L6).
T1 sequence (Q9Y6L6 1-691): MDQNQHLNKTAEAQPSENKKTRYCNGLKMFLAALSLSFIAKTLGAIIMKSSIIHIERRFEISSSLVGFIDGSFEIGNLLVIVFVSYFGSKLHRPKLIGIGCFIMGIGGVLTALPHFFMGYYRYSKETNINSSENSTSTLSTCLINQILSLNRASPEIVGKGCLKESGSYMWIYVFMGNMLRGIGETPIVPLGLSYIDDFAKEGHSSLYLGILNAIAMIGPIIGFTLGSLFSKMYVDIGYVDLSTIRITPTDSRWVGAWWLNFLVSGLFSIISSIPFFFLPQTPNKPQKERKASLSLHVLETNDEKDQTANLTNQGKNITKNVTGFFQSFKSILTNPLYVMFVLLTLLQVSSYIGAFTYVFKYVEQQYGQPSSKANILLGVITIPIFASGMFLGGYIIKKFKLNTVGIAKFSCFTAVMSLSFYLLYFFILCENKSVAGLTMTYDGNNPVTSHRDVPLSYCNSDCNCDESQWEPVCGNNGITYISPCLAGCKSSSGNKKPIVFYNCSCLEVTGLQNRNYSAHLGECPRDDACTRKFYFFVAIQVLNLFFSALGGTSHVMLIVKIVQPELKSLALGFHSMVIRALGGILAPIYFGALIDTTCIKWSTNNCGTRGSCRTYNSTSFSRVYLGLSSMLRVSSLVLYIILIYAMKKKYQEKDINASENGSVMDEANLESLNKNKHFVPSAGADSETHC
The data set can be described thus: OATP1B1 inhibition assay using 3H-E217βG as probe substrate, HEK293FT cells. It counts as cell-based. Also on record: expressed in transfected cells. Particulars: for IC50 (μM): NIO = no interaction observed. How it is done: (§1) HEK293FT-Mock and OATP-transfected cells (1×10^5 cells each) were seeded 24 hr prior to assay. Pre-rinsed ells were incubated for 3 minutes with 1 μM ^3H-E217βG in HK buffer in the presence of various concentrations of test compound or positive control rifampicin. After the experiment cells were rinsed with Krebs-Henseleit buffer and lysed with 0.1 M NaOH. The amount of substrate inside the cells was determined by liquid scintillation reader.
(§2) Percent inhibition was calculated according to the following equation: % inhibition=[1−{[OATP]i−[WT]ni}/{[OATP]ni−[WT]ni}]*100 where: [OATP]i represent the substrate accumulation in the presence of test compound for either OATP1B1, OATP1B3, or OATP2B1 cells; [OATP]ni represents the substrate accumulation in the absence of test compound for either OATP1B1, OATP1B3, or OATP2B1 cells, respectively; and [WT]ni represents the substrate accumulation in the absence of test compound for wild type cells or Mock cells, respectively. IC50 Determination in Transporter Assays
(§3) IC50 was determined according to the procedures described in Example 5. […] Results are reported as NIO (no interaction observed).

In a further data set the target is T2, OATP2B1 (Homo sapiens, UniProt O94956).
T2 construct: expressed in transfected cells; host or cells: MDCKII cells
T2 sequence (O94956 1-709): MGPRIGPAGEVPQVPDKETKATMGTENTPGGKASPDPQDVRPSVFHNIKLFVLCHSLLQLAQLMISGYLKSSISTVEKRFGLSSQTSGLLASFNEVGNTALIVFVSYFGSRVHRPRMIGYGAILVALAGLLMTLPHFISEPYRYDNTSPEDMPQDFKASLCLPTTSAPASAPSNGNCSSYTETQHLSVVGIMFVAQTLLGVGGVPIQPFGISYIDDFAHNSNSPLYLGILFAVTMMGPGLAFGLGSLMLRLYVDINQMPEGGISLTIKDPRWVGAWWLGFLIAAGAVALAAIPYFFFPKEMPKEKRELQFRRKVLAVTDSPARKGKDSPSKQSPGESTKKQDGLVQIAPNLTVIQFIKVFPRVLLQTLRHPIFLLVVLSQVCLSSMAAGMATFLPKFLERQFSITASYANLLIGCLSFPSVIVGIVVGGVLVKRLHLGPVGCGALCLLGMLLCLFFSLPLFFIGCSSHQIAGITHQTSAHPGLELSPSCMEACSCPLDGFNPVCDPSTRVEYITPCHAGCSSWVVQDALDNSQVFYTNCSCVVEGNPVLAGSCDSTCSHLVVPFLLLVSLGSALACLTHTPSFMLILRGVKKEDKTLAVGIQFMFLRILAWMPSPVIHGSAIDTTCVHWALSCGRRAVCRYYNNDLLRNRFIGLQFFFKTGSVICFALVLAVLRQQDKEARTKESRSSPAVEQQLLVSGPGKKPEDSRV
The data set can be described thus: OATP2B1 inhibition assay, 3H-E3S uptake, MDCKII cells. Format: cell-based. On the procedure: MDCKII-Mock and OATP2B1-transfected cells (1×10^5 cells each) were seeded 24 hr prior to assay. Pre-rinsed cells were incubated for 2 minutes with 0.2 μM ^3H-E3S in HK buffer in the presence of various concentrations of test compound or positive control fluvastatin. After the experiment cells were rinsed with Krebs-Henseleit buffer and lysed with 0.1 M NaOH. The amount of substrate inside the cells was determined by liquid scintillation reader.
as §2, §3

Another data set concerns the target T3, OATP1B3 (Homo sapiens, UniProt Q9NPD5).
T3 sequence (Q9NPD5 1-702): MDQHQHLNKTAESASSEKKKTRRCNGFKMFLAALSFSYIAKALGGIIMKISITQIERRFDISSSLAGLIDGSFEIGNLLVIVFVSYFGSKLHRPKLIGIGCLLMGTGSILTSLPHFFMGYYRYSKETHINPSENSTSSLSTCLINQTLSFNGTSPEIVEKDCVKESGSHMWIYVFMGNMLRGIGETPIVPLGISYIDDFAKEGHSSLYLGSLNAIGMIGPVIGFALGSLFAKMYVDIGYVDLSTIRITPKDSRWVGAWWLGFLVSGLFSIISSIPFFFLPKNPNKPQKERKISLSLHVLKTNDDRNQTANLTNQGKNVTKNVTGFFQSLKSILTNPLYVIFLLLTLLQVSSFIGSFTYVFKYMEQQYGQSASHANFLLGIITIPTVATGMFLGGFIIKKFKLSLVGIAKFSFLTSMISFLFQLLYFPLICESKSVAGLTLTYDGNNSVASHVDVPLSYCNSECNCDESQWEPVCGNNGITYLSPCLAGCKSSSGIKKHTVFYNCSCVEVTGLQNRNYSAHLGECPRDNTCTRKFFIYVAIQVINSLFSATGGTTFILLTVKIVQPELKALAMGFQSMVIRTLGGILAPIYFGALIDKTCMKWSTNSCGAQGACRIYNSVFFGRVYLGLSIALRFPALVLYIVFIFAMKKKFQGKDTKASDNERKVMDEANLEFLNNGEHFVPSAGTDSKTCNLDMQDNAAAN
Kind of data set: OATP1B3 inhibition assay using 3H-E217βG as probe substrate, HEK293FT cells. More on the design: expressed in transfected cells. Format: cell-based. On the procedure: as §1, §2, §3

Data set [1] can be described thus: Precipitation of test compound in transporter assay buffer. It counts as physicochemical. As to conditions: 300 μM, MRP2 assay buffer.

Usually inhibition stands for the change of the read-out against control, counted positive when it falls. In general, IC50 refers to the midpoint of a concentration-inhibition curve.

For `O=C(NCc1c(F)cc(F)cc1F)c1cn2c(c(O)c1=O)C(=O)N1[C@H]3CC[C@H](C3)O[C@@H]1C2` [BIC, bictegravir, reference compound], the “IC50 (μM)” value on OATP1B1, against OATP2B1 (NIO = no interaction observed) and against OATP1B3 (NIO = no interaction observed) was “NIO” in each case.

In the case of `O=C(NCc1c(F)cc(F)c(OS(=O)(=O)O)c1F)c1cn2c(c(O)c1=O)C(=O)N1C(C2)O[C@@H]2CC[C@H]1C2` (some centres unmarked) [Metabolite M20], the “IC50 (μM)” value against OATP1B1 is given as “NIO*”. Besides, the “Maximum inhibition at highest test conc. (% of control)” value on OATP1B1 (at 100 μM) is given as “no dose dependent inhibition”. Besides, the inhibition at 3 min, 100 µM on OATP1B1 (human, HEK293FT cells transfected with OATP1B1, probe 3H-E217βG (1 μM), at 100 μM, read-out: Maximum inhibition at highest test conc. (% of control)) amounted to 12%; at OATP1B3 (human, HEK293FT cells transfected with OATP1B3, probe 3H-E217βG (1 μM), at 100 μM, read-out: Maximum inhibition at highest test conc. (% of control)), 49%. Besides, the IC50 against OATP2B1 (NIO = no interaction observed) and against OATP1B3 (NIO = no interaction observed) was above 100 µM each time. For the same compound, the inhibition at 2 min, 100 µM at OATP2B1 (human, MDCKII cells transfected with OATP2B1, probe 3H-E3S (0.2 μM), at 100 μM, read-out: Maximum inhibition at highest test conc. (% of control)) was determined as 26%. Besides, the “Precipitation in assay buffer” value in data set [1] is on record as “Precipitation was observed”.

Source of the values: patent US11253524B2 (Gilead Sciences, Inc., priority 2018, dated 2022).
